Data as given in patent publication US5747006A, “Skin whitener composition containing acerola cherry fermentate” (Amway Corporation, priority 1997, dated 1998).

Test system: tyrosinase from mushroom
Test: Inhibition of tyrosinase, absorbancy at 475 nm with tyrosine substrate
Format: biochemical
Conditions: for percent inhibition of the tyrosinase: pH 6.8 sodium acetate buffer, Example 1
Method: A buffer solution A containing 50 mM sodium acetate was prepared to yield a 6.8 pH.
A test tube was charged with 2.7 ml of buffer solution A and 0.4 ml. water to define a blank. Similarly, another test tube was charged with 2.7 ml. of the tyrosine solution, 0.3 ml of water, and 0.1 ml of the tyrosinase solution to define a reference. The absorbency of the reference was measured at 475 nm over a period of time with a spectrophotometer and the absorbancy was set to zero.
A test tube was charged with 2.7 ml of the tyrosine solution, 0.1 ml. of the tyrosinase solution and 0.02% of mercaptosuccinic acid together with 0.5% acerola cherry fermentate.

SMILES: O=c1cc(CO)occ1O [Comparative Example 2, kojic acid]
- Percent Inhibition (0.5 hours) (0.5 hours, Table 1): 91
- Percent Inhibition (24 hours) (24 hours, Table 1): 92

SMILES: O=C(O)CC(S)C(=O)O (stereo not shown) [compound 1, mercaptosuccinic acid]
- percent inhibition of the tyrosinase (0.5 hours): 95%
- percent inhibition of the tyrosinase (24 hours): 77%
